Experiments:
human JAK2 = target: T1, human JAK2 (Homo sapiens, UniProt O60674); assay: Alphascreen tyrosine kinase enzyme assay, JAK2 kinase domain; format: biochemical; conditions: read-out: JAK2 IC50_nM
T1 construct: The kinase domain of human JAK2 was amplified; GST (N); made in house; host or cells: Sf9 insect cells (baculovirus)
In short: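 JAK2 kinase domain expressed in baculovirus/Sf9 and glutathione-affinity purified. Compounds (final […]) pre-incubated 20 min with enzyme in 10 mM HEPES pH 7.5, MgCl2, NaCl, vanadate, 0.1% Tween 20.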

BaF3 wild-type cells = assay: Cellular screening, BaF3 wild-type cells, Alamar Blue; format: cell-based; conditions: Mus musculus, 40 hr, read-out: BAF3wt IC50_nM
In short: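 Cells were cultured in DMEM with 10% FCS and 10% WEHI 3B conditioned medium, and suspensions were prepared at 1.1× final (50,000–200,000 cells/mL). Compounds from 20 μM dilution plates were added at 10× final and incubated for 40 hr at 37° C, 5% CO2. Alamar Blue was then added for 4–6 hours and read at 544 nm.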

[1] = target: T2, BaF3 TELJAK2 cells (BafT_J2) (Homo sapiens, UniProt O60674); assay: Cellular screening, BaF3 TEL:JAK2 cells, Alamar Blue; format: cell-based; conditions: 40 hr, read-out: BafT_J2 IC50_nM
T2 construct: fused on or other part: TEL (ETV6) N-terminal part, coding nucleotides 1-487, serves as the oligomerising partner; It is fused through a Sal I site to the JAK2 kinase domain and expressed from pTRE2 in BaF3 cells bearing pTET-off; P41212 (Transcription factor ETV6)
T2 sequence (O60674 whole entry, change not shown, the tested form may be a part): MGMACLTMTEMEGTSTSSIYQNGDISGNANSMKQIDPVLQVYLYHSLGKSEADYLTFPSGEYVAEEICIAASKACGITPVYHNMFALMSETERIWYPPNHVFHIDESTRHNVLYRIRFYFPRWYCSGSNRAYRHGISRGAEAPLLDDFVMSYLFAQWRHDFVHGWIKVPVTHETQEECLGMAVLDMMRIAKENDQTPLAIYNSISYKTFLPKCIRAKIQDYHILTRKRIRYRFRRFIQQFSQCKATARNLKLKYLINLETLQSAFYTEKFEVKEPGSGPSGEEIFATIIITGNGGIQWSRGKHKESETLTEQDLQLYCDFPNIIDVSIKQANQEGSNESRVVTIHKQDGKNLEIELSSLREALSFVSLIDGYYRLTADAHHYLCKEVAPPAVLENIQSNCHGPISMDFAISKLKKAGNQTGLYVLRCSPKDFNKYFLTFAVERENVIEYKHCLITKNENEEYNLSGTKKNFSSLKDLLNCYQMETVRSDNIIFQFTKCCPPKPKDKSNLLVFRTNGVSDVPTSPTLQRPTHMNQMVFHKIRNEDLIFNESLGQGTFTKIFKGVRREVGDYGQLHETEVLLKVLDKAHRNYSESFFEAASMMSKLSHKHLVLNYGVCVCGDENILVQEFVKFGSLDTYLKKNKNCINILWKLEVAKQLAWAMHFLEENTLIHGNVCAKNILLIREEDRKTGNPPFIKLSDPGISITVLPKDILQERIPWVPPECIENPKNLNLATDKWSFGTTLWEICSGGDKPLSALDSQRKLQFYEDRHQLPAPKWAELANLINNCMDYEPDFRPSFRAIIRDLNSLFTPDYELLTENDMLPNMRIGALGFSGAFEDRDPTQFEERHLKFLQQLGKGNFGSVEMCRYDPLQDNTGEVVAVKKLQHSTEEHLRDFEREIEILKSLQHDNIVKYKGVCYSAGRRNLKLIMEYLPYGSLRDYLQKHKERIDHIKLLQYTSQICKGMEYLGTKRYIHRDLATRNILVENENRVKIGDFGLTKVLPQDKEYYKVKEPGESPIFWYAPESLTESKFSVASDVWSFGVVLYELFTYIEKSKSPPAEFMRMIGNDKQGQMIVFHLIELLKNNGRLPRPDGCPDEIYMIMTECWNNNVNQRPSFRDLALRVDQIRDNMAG
In short: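 Tet-off BaF3 cells carrying a TEL (nt 1-487)–JAK2 kinase-domain fusion, grown factor-independently in DMEM with 10% Tet-approved FBS without WEHI 3B medium. Compounds were diluted to 20 μM in screening plates, and cells (50,000–200,000 cell/mL at 1.1×) were incubated 40 hr at 37 °C, 5% CO2. Alamar Blue was then added for 4-6 hours; read at 544 nm.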

CTLL2 = assay: Cellular screening, CTLL2 cells, Alamar Blue; format: cell-based; conditions: Mus musculus, CTLL-2, read-out: CTLL2 IC50_nM
In short: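 CTLL2 cells in late log phase incubated with compound for 40 hr at 37° C, 5% CO2. Viability then read at 544 nm after a further 4-6 hours with Alamar Blue.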

human JAK3 = target: T3, human JAK3 (Homo sapiens, UniProt P52333); assay: Alphascreen tyrosine kinase enzyme assay, JAK3 kinase domain; format: biochemical; conditions: read-out: JAK3 IC50_nM
T3 construct: The kinase domain of human JAK3 was amplified; GST (N); made in house; host or cells: Sf9 insect cells (baculovirus)
T3 sequence (P52333 822-1111 limits assumed): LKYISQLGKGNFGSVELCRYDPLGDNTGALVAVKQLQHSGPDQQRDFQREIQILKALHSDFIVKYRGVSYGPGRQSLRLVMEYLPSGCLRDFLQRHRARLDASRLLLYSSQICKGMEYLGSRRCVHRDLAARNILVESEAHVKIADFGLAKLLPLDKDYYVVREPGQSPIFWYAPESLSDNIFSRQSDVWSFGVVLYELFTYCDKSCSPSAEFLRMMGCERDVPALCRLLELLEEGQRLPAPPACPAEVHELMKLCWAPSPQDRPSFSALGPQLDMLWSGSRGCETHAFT
In short: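 GST-affinity-purified human JAK3 kinase domain (baculovirus/Sf9) was pre-incubated 20 min with compound ([…]) in HEPES pH 7.5 buffer with MgCl2, vanadate and Tween 20. Biotinylated peptide substrate ([…]) and ATP were then added; phosphotyrosine was detected by AlphaScreen PY100 acceptor and streptavidin donor beads after 2–3 h.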

T1 sequence (O60674 849-1124 limits assumed): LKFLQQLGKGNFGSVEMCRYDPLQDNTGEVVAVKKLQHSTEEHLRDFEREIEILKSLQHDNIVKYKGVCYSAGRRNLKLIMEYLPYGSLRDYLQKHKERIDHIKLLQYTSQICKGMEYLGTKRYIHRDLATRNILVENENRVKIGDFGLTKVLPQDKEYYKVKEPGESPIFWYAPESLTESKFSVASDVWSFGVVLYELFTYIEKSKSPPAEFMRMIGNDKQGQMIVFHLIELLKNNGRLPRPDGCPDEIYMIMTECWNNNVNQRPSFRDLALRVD

Row | Structure (SMILES) | IC50 (human JAK2) [µM] | IC50 (BaF3 wild-type cells) [µM] | GI50 [1] [µM] | IC50 (CTLL2) [µM] | IC50 (human JAK3) [µM]
1 | C=CC(=O)Nc1cccc(Nc2nccc(SC)n2)c1 [Compound 7, N-(3-(4-(methylthio)pyrimidin-2-ylao)phenyl)acrylamide] | > 1 | < 20 | < 20 | < 5 | < 0.1
2 | Cc1cnc(Nc2ccc(N3CCOCC3)cc2)nc1Sc1ccc(N2C(=O)COCC2=O)cc1 [Compound 190, 4-(4-(5-methyl-2-(4-morpholinophenylao)pyrimidin-4-ylthio)phenyl)morpholine-3,5-dione] | < 0.5 | > 20 | > 20 | > 20 | < 0.1
3 | Cc1cnc(Nc2ccc(O)cc2)nc1Sc1ccc(N)cc1 [Compound 191, 4-(4-(4-aophenylthio)-5-methylpyrimidin-2-ylao)phenol] | > 1 | < 5 | < 5 | < 5 | < 0.5
4 | Cc1cnc(Nc2cccc(S)c2)nc1Sc1ccc(NC(=O)CCl)cc1 [Compound 195, 2-chloro-N-(4-(2-(3-mercaptophenylao)-5-methylpyrimidin-4-ylthio)phenyl)acetamide] | > 1 | > 20 | > 20 | > 20 | < 0.1
5 | Cc1cnc(Nc2ccc(N3CCOCC3)cc2)nc1Sc1ccc(N2CCSCC2=O)cc1 [Compound 197, 4-(4-(5-methyl-2-(4-morpholinophenylao)pyrimidin-4-ylthio)phenyl)thiomorpholin-3-one] | > 1 | > 20 | > 20 | > 20 | < 0.1
6 | N#Cc1c(N)ncn1Cc1cccc(Sc2ccnc(Nc3ccc(N4CCOCC4)cc3)n2)c1 [Compound 199, 4-ao-1-(3-(2-(4-morpholinophenylao)pyrimidin-4-ylthio)benzyl)-1H-imiazole-5-carbonitrile] | < 1 | < 20 | < 5 | < 20 | < 0.5
7 | N#Cc1ncn(Cc2ccc(Sc3ccnc(Nc4ccc(N5CCOCC5)cc4)n3)cc2)c1N [Compound 202, 5-ao-1-(4-(2-(4-morpholinophenylao)pyrimidin-4-ylthio)benzyl)-1H-imidazole-4-carbonitrile] | < 1 | < 20 | < 5 | < 5 | < 0.5
8 | N#Cc1c(N)ncn1Cc1ccc(Sc2ccnc(Nc3ccc(N4CCOCC4)cc3)n2)cc1 [Compound 203, 4-ao-1-(4-(2-(4-morpholinophenylao)pyrimidin-4-ylthio)benzyl)-1H-imidazole-5-carbonitrile] | < 1 | < 1 | < 1 | < 1 | < 0.5
9 | c1cc(Sc2ccc(Cn3cncn3)cc2)nc(Nc2ccc(N3CCOCC3)cc2)n1 [Compound 204, 4-(4-((1H-1,2,4-triazol-1-yl)methyl)phenylthio)-N-(4-morpholinophenyl)pyrimidin-2-ae] | < 1 | < 20 | < 5 | < 20 | < 0.5
10 | NC(=O)c1ccc(Sc2ccnc(Nc3ccc(N4CCOCC4)cc3)n2)cc1 [Compound 207, 4-(2-(4-morpholinophenylao)pyrimidin-4-ylthio)benzamide] | > 1 | – | > 20 | – | < 0.5
11 | N#CCc1ccc(Sc2ccnc(Nc3ccc(N4CCOCC4)cc3)n2)cc1 [Compound 210, 2-(4-(2-(4-morpholinophenylao)pyrimidin-4-ylthio)phenyl)acetonitrile] | > 1 | > 20 | > 20 | > 20 | < 0.5
12 | Cc1cnc(Nc2ccc(N3CCOCC3)cc2)nc1Sc1cccc(CO)c1 [Compound 212, (3-(5-methyl-2-(4-morpholinophenylao)pyrimidin-4-ylthio)phenyl)methanol] | < 0.5 | > 20 | > 20 | > 20 | < 0.5
13 | CON(C)C(=O)c1ccc(Sc2nc(Nc3ccc(N4CCOCC4)cc3)ncc2C)cc1 [Compound 218, N-methoxy-N-methyl-4-(5-methyl-2-(4-morpholinophenylao)pyrimidin-4-ylthio)benzamide] | > 1 | > 20 | > 20 | > 20 | < 0.5
14 | Cc1cnc(Nc2ccc(N3CCOCC3)cc2)nc1Sc1ccc(C=O)cc1 [Compound 219, 4-(5-methyl-2-(4-morpholinophenylao)pyrimidin-4-ylthio)benzaldehyde] | > 1 | < 5 | < 5 | > 20 | < 0.5
15 | Cc1cnc(Nc2ccc(N3CCOCC3)cc2)nc1Sc1ccc(CO)cc1 [Compound 220, (4-(5-methyl-2-(4-morpholinophenylao)pyrimidin-4-ylthio)phenyl)methanol] | < 0.5 | < 5 | < 5 | < 1 | < 0.1
16 | Cc1cnc(Nc2ccc(N3CCOCC3)cc2)nc1Sc1ccc(CC#N)cc1 [Compound 222, 2-(4-(5-methyl-2-(4-morpholinophenylao)pyrimidin-4-ylthio)phenyl)acetonitrile] | > 1 | > 20 | > 20 | > 20 | < 0.5
17 | Cc1cnc(Nc2ccc(N3CCOCC3)cc2)nc1Sc1ccc(C(C#N)N2CCOCC2)cc1 (stereo not shown) [Compound 223, 2-(4-(5-methyl-2-(4-morpholinophenylao)pyrimidin-4-ylthio)phenyl)-2-morpholinoacetonitrile] | > 1 | < 5 | < 5 | < 5 | < 0.5
18 | Cc1cnc(Nc2ccc(N3CCOCC3)cc2)nc1Sc1ccc(C(=O)N2CCCC2)cc1 [Compound 224, (4-(5-methyl-2-(4-morpholinophenylao)pyrimidin-4-ylthio)phenyl)(pyrrolidin-1-yl)methanone] | < 1 | < 20 | > 20 | > 20 | < 0.5
19 | Cc1cnc(Nc2ccc(N3CCOCC3)cc2)nc1Sc1ccc(C(C#N)N2CCN(C)CC2)cc1 (stereo not shown) [Compound 225, 2-(4-(5-methyl-2-(4-morpholinophenylao)pyrimidin-4-ylthio)phenyl)-2-(4-methylpiperazin-1-yl)acetonitrile] | > 1 | < 5 | < 5 | < 5 | < 0.5
20 | Cc1cnc(Nc2cccc(NS(C)(=O)=O)c2)nc1Sc1ccc(CO)cc1 [Compound 226, N-(3-(4-(4-(hydroxymethyl)phenylthio)-5-methylpyrimidin-2-ylao)phenyl)methanesulfonamide] | > 1 | – | < 5 | – | < 0.5
21 | Cc1cnc(Nc2ccc(N3CCOCC3)cc2)nc1Sc1ccc(NC2CCOC2=O)cc1 (stereo not shown) [Compound 228, 3-(4-(5-methyl-2-(4-morpholinophenylao)pyrimidin-4-ylthio)phenylao)dihydrofuran-2(3H)-one] | > 1 | > 20 | > 20 | > 20 | < 0.1
22 | Cc1cnc(Nc2ccc(N3CCOCC3)cc2)nc1Sc1ccc(NC(=O)CO)cc1 [Compound 229, 2-hydroxy-N-(4-(5-methyl-2-(4-morpholinophenylao)pyrimidin-4-ylthio)phenyl)acetamide] | < 1 | < 20 | < 20 | < 20 | < 0.5

— US8846704B2, “Thiopyrimidine-based compounds and uses thereof” (YM Biosciences Austraila Pty Ltd, priority 2007, dated 2014)
